Series [1] deals with D-425. In words: Cell growth assay (viable cell count, trypan blue exclusion). Format: cell-based, human. On the procedure:
(§1) Cell growth and sphere formation assay. After dissociating primary neurospheres by TrypLE express (Gibco), single cells were seeded in respective growth media in 6-well plates and were incubated for one week at varying concentrations (0.5 to 10 μM) of 6-thio-dG or DMSO. Fresh culture media were added every three days. Viable cell numbers were determined by trypan blue exclusion method. For sphere formation assay, MB004 single cells were seeded in limited dilution (10 cells/well in 96-well plate) and treated with DMSO or 6-thio-dG. Sphere formation was monitored by microscopy.

For series [2], the system named is D-458. Described as above. It is filed as cell-based, human. The procedure:
as §1

Series [3] concerns HFF. Described as above. Format: cell-based, human. The procedure:
as §1

Series [4] deals with MB004. The series is described as above. Format: cell-based, human. On the procedure:
as §1

Series [5] has as its system SaOS2. The series is described as above. Format: cell-based, human. The procedure:
as §1

For series [6], the system named is HFF cells. The experiment in a line: Apoptosis, cleaved caspase-3 (IF / immunoblot). Format: cell-based, human. As to conditions: 3 μM for 4 or 7 days. The procedure: (§2) Immunofluorescence and telomere FISH assay. Cells were fixed with 4% paraformaldehyde (PFA) for 15 minutes. Cells were then washed, permeabilized with 0.5% Triton-X-100 in PBS, blocked with 5% donkey serum and 0.3% Triton X-100 in TBS and incubated with primary antibodies against γH2A.X (1:500, rabbit), or cleaved caspase-3 (1:400, rabbit) (Cell Signaling); and/or TRF2 (1:200) (Mouse; NOVUS), as applicable, for overnight followed by TBST wash (×3) next day. Corresponding secondary antibodies were added (Alexa-Fluor 488- or 594-conjugated donkey anti-rabbit, or anti-mouse (1:500) (Jackson ImmunoResearch) for 1 hour and washed with TBS (×3) before mounting. For telomere-FISH, fixed and permeabilized cells were dehydrated with a graded ethanol concentration series, air-dried and covered with hybridization solution (70% formamide, 0.5% Blocking Reagent (Roche Diagnostics) diluted in 100 mM maleic acid and 150 mM sodium chloride, and 10 mM Tris (pH 7.5)) with 300 ng/mL PNA(CCCTAA)3-Cy3 (SEQ ID NO: 1) (Biosynthesis, USA), and denatured for 6 minutes at 84° C. followed by hybridization for at least two hours at room temperature. Cells were washed three times with 70% formamide and 10 mM Tris (pH 7.5) and three times with TBS. Finally, they were embedded with mounting media with DAPI (Vector Laboratories H1200).
(§3) Western blot. Western blot was performed as described previously (22). Antibodies used were against ATMS1981P (R & D Systems); ATM (SIGMA); ATR-T1989P (GeneTex); and ATR, CHK1-S345P, CHK1, CHK2-T68P, CHK2, Cleaved Caspase-3, and β-actin (Cell Signaling). Bands were visualized using ECL with Azurec500 imaging system (Azure Biosystems). Band intensities were quantified using ImageJ software (Ver. 1.49u, NIH, USA).
(In western blotting, separated proteins are transferred to a membrane and probed.)

The test system of series [7] is HFF+hTERT cells. In words: Apoptosis, cleaved caspase-3 (IF / immunoblot). Format: cell-based, human. As to conditions: 3 μM for 4 or 7 days. On the procedure:
as §2, §3

In series [8] the test system is HeLa cells. The experiment in a line: Apoptosis, cleaved caspase-3 (IF / immunoblot). Format: cell-based, human. As to conditions: 3 μM for 4 or 7 days. The procedure:
as §2, §3

Series [9] concerns U2OS cells. In words: Cell growth and viability after drug removal. It is filed as cell-based, human. As to conditions: 3 mM 6-thio-dG for 3 days followed by 10-days post-drug removal (FIG. 10C).
The subject of series [10] is CCHMC-DIPG-1 orthotopic tumors. In words: Orthotopic patient-derived DIPG xenograft (CCHMC-DIPG-1 in pons). Format: in vivo, mouse. The procedure:
Mouse subcutaneous and orthotopic xenograft. Athymic Ncr-nu/nu female mice (6-7 weeks old) were subcutaneously injected with 10,000 MB004 cells. Mice were weighed and distributed in two groups (control and 6-thio-dG). After tumor-establishment (day 23-24 post-implantation) with an average volume of 100-200 mm3, mice were injected intraperitoneally (i.p) every 2 days with 6-thio-dG (2.5 mg/kg) or DMSO-PBS (vehicle) for 3-4 weeks until euthanization. Tumors were measured by slide calipers taking two longest tumor-diameters (length and width) perpendicular to each other and volumes were calculated by using the formula: (π/6)×d3, where d=mean diameter. For orthotopic xenograft, CCHMC-DIPG-1 luciferase-positive cells (10,000) were injected in the brain of NRG (NOD.Cg-Rag1tm1Mom Il2rgtm1Wjl/SzJ) mice. Briefly, mice were injected stereotactically with 2 μl medium containing 10,000 luciferase-positive cells. The coordinates for injection were 0.8-1 mm posterior to lambda suture and 3.5 mm deep, corresponding to the pons location in the brain. Tumors were visualized by luminescence using IVIS Spectrum CT in vivo imaging system (PerkinElmer). All animal procedures were approved by the Institutional Animal Care and Use Committee (IACUC) (protocol #IACUC2015-0066, CCHMC).
Immunohistochemistry. Formalin-fixed paraffin-embedded (FFPE) sections were deparaffinized in xylene followed by rehydration through a graded ethanol concentration series. Heat-induced antigen retrieval was performed by steaming slides for 20 minutes in 10 mM Citrate buffer (pH 6.0). […] Slides were washed with TBST (×3) and were treated with biotinylated anti-rabbit secondary antibody (1:500) and signal-amplified using ABC Kit (Vector Laboratories). Signal was visualized with DAB (Vector Laboratories) and counterstained with Harris Hematoxylin (Sigma). H & E staining was performed using hematoxylin-1 and eosin-Y (Thermo Scientific). Tissues were mounted with Permount (Fisher Scientific) and imaged by Nikon eclipse 80i microscope.
Tissue TIF assay. […]
Background: A xenograft is tissue or cells of one species grown in another, often human tumour cells in immunodeficient mice.

“Also recorded” adds a separate entry of the source.

As to `Nc1nc2c(ncn2[C@H]2C[C@H](O)[C@@H](CO)O2)c(=S)[nH]1` [6-thio-dG, 6-thio-2′-deoxyguanosine], the cell growth entry is “effectively inhibited cell growth” in series [1] (0.5-10 μM for one week, cells at diagnosis); “effectively inhibited cell growth” in series [2] (0.5-10 μM for one week, cells at recurrence); “minor to no effect” in series [3] (up to 3 μM, one week); “minor to no effect” in [5] (up to 3 μM, one week). Further, the IC50 in series [1] (Homo sapiens, 168 h, 6-thio-dG treatment for 7 days, D-425 (primary)) was 1.38 µM; in series [2] (Homo sapiens, 168 h, 6-thio-dG treatment for 7 days, D-458 (recurrence)), 1.45 µM; in [3] (Homo sapiens, 168 h, 6-thio-dG treatment for 7 days, HFF (telomerase-negative)), 7.91 µM; in series [4] (Homo sapiens, 168 h, 6-thio-dG treatment for 7 days, MB004), 0.436 µM; in series [5] (Homo sapiens, SAOS-2, 168 h, 6-thio-dG treatment for 7 days, SaOS2 (telomerase-negative, ALT-positive)) it was 7.58 µM. The relative growth entry in series [4] (3 μM 2 days, then 3 days continuous or discontinuous treatment) is “robust growth inhibition”. Besides, the “apoptosis (cleaved caspase-3)” value in series [6] and in series [7] was “did not show any evidence of apoptosis” throughout. The “cleaved caspase-3 signal (apoptosis)” value in [8] is given as “increase in cleaved caspase-3 signal”. Besides, the “cell death / viability” value in [9] is on record as “predominantly did not die”. In addition, the “intratumoral TIFs and genomic DNA damage” value in series [10] (i.p., 7-8 days (4-5 doses in total), vs untreated tumors) was “increase in the number of cells with genomic DNA damage and TIFs”. Besides, the “effect on normal mouse brain” value in [10] (intraperitoneal injection) is “no obvious effect on normal brain tissue; also recorded: did not observe any adverse effects”. Moreover, the “penetration to brain tumor site” value in [10] (intraperitoneal injection) is “reached the tumor in the pons; also recorded: crossed the blood-brain-barrier”.

As a reminder, the IC50 is the concentration that gives 50% inhibition.

The values are drawn from patent US12594293B2, “Use of 6-thio-dG to treat therapy-resistant telomerasepositive pediatric brain tumors” (The Board of Regents of The University of Texas System, priority 2018, dated 2026).
